The results in this text go back to patent US11878975B2, “Substituted indole compounds useful as TLR inhibitors” (BRISTOL-MYERS SQUIBB COMPANY, priority 2017, dated 2024).

Common to all, as to type: cell-based
One assay concerns the target T1, human TLR9 (Homo sapiens, UniProt Q9NR96).
T1 construct: host or cells: HEK-Blue cells
T1 sequence (Q9NR96 26-1032): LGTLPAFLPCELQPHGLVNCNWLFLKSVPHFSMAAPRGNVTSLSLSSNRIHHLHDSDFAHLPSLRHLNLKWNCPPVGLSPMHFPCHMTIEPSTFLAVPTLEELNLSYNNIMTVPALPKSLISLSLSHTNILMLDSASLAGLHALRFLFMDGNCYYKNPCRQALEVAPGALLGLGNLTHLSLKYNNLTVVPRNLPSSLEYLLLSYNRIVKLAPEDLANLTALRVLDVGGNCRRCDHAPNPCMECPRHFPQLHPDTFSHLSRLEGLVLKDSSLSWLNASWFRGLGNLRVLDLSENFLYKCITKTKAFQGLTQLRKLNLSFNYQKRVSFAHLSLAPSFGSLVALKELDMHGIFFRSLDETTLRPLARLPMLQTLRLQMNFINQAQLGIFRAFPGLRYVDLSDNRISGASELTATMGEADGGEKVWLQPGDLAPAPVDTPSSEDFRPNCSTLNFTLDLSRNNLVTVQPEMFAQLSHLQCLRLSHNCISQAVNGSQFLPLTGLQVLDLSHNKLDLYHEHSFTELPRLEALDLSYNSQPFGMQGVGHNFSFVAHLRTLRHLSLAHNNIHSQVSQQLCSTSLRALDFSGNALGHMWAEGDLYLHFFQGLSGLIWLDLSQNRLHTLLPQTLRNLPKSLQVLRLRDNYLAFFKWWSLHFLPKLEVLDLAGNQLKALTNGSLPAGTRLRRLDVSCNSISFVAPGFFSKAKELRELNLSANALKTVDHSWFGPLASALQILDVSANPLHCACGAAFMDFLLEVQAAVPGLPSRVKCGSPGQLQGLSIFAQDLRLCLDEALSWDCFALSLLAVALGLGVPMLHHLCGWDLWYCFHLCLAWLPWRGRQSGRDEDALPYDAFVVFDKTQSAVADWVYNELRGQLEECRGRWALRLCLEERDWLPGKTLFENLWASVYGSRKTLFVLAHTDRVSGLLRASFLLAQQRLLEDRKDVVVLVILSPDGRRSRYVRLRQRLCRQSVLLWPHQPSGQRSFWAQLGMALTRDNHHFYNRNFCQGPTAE
Briefly: TLR9 inhibition reporter assay (HEK-Blue cells, SEAP reporter, ODN2006 stimulation). To be noted: HEK-Blue cells overexpressing human TLR9, SEAP reporter, ODN2006 5 nM. The method in brief: (§1)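 SEAP readout after 22 h agonist exposure at 37 °C; final agonist levels were 7.5 μM gardiquimod (TLR7), 15.9 μM R848 (TLR8) and 5 nM ODN2006 (TLR9). Inhibitors, spanning 0.05 nM to 50 μM final, were applied 30 min beforehand.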
For orientation: Reporter assays use an easily measured gene product as a stand-in for the process of interest.

The target in a further assay is T2, human TLR8 (Homo sapiens, UniProt Q9NR97).
T2 construct: host or cells: HEK-Blue cells
T2 sequence (Q9NR97 27-1041): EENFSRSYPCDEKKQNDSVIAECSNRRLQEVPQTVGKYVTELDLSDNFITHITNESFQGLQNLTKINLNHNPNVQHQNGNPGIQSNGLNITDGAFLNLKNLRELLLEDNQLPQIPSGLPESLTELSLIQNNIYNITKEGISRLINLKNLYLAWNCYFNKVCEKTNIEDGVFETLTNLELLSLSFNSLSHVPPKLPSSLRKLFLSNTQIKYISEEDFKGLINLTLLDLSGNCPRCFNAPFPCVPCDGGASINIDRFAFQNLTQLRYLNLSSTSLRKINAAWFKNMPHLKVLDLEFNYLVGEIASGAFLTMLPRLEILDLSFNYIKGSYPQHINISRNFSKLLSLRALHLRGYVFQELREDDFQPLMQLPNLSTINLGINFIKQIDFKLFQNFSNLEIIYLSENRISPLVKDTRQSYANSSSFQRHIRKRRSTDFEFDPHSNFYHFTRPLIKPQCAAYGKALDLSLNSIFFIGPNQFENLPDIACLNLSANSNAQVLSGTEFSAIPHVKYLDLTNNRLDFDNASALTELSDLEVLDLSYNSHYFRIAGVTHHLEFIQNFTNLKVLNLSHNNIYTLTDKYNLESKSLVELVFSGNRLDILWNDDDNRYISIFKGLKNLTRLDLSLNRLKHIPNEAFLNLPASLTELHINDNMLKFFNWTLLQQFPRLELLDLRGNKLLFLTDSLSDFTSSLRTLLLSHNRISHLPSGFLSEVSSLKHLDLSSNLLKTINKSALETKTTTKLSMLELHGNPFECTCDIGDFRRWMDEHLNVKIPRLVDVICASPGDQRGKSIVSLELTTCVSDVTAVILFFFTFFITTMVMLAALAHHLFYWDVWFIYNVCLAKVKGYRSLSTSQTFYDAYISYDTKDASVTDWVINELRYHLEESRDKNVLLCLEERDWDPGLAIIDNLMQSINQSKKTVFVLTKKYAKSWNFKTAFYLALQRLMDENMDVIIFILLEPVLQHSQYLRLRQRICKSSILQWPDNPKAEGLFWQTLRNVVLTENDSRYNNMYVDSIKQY
Kind of assay: TLR8 inhibition reporter assay (HEK-Blue cells, SEAP reporter, R848 stimulation). The note with it: HEK-Blue cells overexpressing human TLR8, SEAP reporter, R848 15.9 μM. The procedure, abridged:
as §1

In another assay the target is T3, human TLR7 (Homo sapiens, UniProt Q9NYK1).
T3 construct: host or cells: HEK-Blue cells
T3 sequence (Q9NYK1 27-1049): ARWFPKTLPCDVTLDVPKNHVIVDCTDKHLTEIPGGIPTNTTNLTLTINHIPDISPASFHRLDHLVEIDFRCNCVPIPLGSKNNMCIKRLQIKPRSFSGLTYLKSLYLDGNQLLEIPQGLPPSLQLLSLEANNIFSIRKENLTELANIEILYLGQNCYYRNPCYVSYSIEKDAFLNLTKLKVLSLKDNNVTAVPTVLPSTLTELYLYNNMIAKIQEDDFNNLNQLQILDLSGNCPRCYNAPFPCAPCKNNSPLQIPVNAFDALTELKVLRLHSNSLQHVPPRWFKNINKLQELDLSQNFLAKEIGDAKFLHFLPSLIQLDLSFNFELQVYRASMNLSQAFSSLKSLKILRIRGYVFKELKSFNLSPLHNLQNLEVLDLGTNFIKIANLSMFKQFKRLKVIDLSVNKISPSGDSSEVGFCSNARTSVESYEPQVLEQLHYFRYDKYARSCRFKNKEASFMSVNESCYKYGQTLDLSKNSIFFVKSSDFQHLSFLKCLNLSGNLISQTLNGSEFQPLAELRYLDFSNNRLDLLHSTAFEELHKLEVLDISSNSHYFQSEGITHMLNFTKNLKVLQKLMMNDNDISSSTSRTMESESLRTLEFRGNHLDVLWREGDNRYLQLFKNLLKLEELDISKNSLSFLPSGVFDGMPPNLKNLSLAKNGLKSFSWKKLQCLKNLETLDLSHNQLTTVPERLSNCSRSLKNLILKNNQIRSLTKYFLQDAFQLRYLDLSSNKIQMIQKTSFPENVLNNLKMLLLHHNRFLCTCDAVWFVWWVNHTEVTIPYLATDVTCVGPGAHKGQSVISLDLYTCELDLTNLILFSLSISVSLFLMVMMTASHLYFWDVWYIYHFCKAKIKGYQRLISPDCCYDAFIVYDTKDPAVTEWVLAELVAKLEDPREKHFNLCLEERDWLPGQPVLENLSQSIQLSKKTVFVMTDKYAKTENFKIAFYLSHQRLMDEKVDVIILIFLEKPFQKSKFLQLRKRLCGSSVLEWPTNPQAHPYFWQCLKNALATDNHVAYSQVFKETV
Kind of assay: TLR7 inhibition reporter assay (HEK-Blue cells, SEAP reporter, gardiquimod stimulation). To be noted: HEK-Blue cells overexpressing human TLR7, SEAP reporter, gardiquimod 7.5 μM. The method in brief: as §1

As a reminder, the IC50 is the concentration at which inhibition is half-maximal. The low end stands for higher potency, the high end for lower potency. Take `Cc1c(-c2[nH]c3ccc(C4CCCNC4)cc3c2C(C)C)cn2ncnc2c1C` (stereo not drawn) [Example 190]: the values for the IC50 against human TLR9, at human TLR8 and against human TLR7 were 851 nM, 0.35 nM and 0.43 nM, respectively.
The corresponding values for `COCCN(C)C1CCC(c2ccc3[nH]c(-c4cc(OC)c5ncnn5c4)c(C(C)C)c3c2)CC1` (single isomer, unassigned) [Example 72] are 1280 nM, 1.2 nM and 0.3 nM.
`COc1cc(-c2[nH]c3ccc(C4CCC(N(C)C(C)C)CC4)cc3c2C(C)C)cn2ncnc12` (single isomer, unassigned) [Example 6, N-isopropyl-4-(3-isopropyl-2-(8-methoxy-[1,2,4]triazolo[1,5-a]pyridin-6-yl)-1H-indol-5-yl)-N-methylcyclohexanamine]: the IC50 is 1210 nM on human TLR9, 1 nM on human TLR8 and 0.33 nM at human TLR7.
In the case of `CNC(=O)CN1CC2CC(c3ccc4[nH]c(-c5cn6ncnc6c(C)c5C)c(C(C)C)c4c3)CC2C1` (stereo not drawn) [Example 510], the IC50 against human TLR9 was 20700 nM; against human TLR8, 12 nM; against human TLR7, 2 nM.
As to `COc1cc(-c2[nH]c3ccc(C4CCCN(C(=O)CN(C)C)C4)cc3c2C(C)C)cn2ncnc12` (stereo not drawn) [Example 192], the IC50 against human TLR9 was found to be 2830 nM; against human TLR8, 5.9 nM; on human TLR7, 0.49 nM.
Take `Cc1c(-c2[nH]c3ccc(C4CC(NC(=O)CN(C)C)C4)cc3c2C(C)C)cn2ncnc2c1C` (stereo not drawn) [Example 578]: the values for the IC50 at human TLR9, on human TLR8 and at human TLR7 were 6440 nM, 0.61 nM and 0.59 nM, respectively.
The corresponding values for `CNCC(=O)N1CCOC(c2ccc3[nH]c(-c4cn5ncnc5c(C)c4C)c(C(C)C)c3c2)C1` (stereo not drawn) [Example 341] are 5970 nM, 5 nM and 2 nM.
In the case of `CCN(C)C1CCC(c2ccc3[nH]c(-c4cn5ncnc5c(C)c4C)c(C(C)C)c3c2)CC1` (stereo not drawn) [Example 88], the results for the IC50 against human TLR9, against human TLR8 and against human TLR7 were 1980 nM, 4.7 nM and 2 nM, respectively.
The corresponding values for `COCCC(=O)N1CCCC(c2ccc3[nH]c(-c4cc(C)nc(C)c4)c(C(C)C)c3c2)C1` (stereo not drawn) [Example 207] are 43500 nM, 97 nM and 24 nM.
In the case of `Cc1c(-c2[nH]c3ccc(C4CCC(NC(=O)CN(C)C)CC4)cc3c2C(C)C)cn(C)c(=O)c1C` (stereo not drawn) [Example 472], the IC50 against human TLR9 worked out at 23700 nM; against human TLR8, 4.6 nM; against human TLR7 it was 3 nM.
The corresponding values for `Cc1c(-c2[nH]c3ccc(C4CCC(N(C)CCS(C)(=O)=O)CC4)cc3c2C(C)C)cn2ncnc2c1C` (stereo not drawn) [Example 151] are 3340 nM, 0.37 nM and 0.62 nM.
